The values below come from patent US7074789B2, “Kinase inhibitors” (Amgen Inc., priority 1999, dated 2006).

pIC50: −log10 of the molar value. Read-outs that look alike come from different tables or passages of the source.

What all share (type): biochemical
One experiment addresses T1, Lck (Homo sapiens, UniProt P06239).
T1 construct: Kinases are expressed as either kinase domains or full length constructs; made in house
In words: Kinase inhibition assay (33P transfer), Lck. The following applies: read-out: Lck-1. The essentials:
(§1)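 Kinase domain or full-length constructs, GST- or polyHis-tagged, expressed in E. coli or baculovirus-High Five cells, sometimes with regulatory polypeptides. Activity measured as 33PO4 transfer from ATP to plate-bound poly(Glu,Tyr) 4:1 or poly(Arg,Ser) 3:1; after incubation, plates washed with 0.5% phosphoric acid and counted by liquid scintillation.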

For the next experiment, the target named is T2, Zap-70 (Homo sapiens, UniProt P43403).
T2 construct: Kinases are expressed as either kinase domains or full length constructs; made in house
T2 sequence (P43403 1-619): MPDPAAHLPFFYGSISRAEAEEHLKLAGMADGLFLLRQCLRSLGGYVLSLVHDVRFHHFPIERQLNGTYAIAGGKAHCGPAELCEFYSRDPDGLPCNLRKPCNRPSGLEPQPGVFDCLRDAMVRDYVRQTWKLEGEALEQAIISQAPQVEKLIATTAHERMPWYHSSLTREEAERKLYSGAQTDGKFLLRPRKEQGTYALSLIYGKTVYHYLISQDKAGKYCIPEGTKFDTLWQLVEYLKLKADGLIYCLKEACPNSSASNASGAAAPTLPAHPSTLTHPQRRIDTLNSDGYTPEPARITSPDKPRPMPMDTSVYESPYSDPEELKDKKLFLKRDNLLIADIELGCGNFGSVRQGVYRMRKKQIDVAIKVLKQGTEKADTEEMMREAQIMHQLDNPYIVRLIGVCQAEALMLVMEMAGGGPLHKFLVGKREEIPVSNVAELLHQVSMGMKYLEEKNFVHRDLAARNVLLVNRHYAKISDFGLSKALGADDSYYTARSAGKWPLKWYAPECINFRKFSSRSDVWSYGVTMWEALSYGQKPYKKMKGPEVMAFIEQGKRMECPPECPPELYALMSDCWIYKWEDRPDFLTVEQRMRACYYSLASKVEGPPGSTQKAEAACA
Description: Kinase inhibition assay (33P transfer), Zap-70. The following applies: read-out: Zap-1. The essentials:
as §1

The target of the next experiment is T3, Itk (Homo sapiens, UniProt Q08881).
T3 construct: Kinases are expressed as either kinase domains or full length constructs; made in house
T3 sequence (Q08881 1-620): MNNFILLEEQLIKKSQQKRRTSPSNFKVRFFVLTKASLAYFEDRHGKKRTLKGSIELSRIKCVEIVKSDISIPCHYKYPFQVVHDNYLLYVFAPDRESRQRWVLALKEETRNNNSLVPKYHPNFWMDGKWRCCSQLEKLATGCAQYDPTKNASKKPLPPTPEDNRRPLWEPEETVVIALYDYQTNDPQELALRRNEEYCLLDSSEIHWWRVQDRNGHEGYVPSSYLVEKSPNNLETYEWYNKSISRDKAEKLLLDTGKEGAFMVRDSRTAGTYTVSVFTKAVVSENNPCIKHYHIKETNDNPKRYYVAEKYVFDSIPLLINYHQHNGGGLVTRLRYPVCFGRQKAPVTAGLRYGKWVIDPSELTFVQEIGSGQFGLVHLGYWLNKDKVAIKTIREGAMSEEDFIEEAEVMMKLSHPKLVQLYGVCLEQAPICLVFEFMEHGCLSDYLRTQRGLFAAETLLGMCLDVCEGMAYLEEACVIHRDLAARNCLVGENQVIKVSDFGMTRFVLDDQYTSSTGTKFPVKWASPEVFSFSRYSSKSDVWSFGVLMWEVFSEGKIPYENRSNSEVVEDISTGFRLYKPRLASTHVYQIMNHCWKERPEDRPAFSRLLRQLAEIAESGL
Description: Kinase inhibition assay (33P transfer), Itk. The following applies: read-out: Itk-1. The procedure, abridged: (§2)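 GST/His-fusion kinases, E. coli or High Five expressed, affinity purified; 33P-ATP, plate-coated poly(Glu,Tyr) 4:1 or poly(Arg,Ser) 3:1; 0.5% H3PO4 wash, scintillant, LSC.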

A further experiment has as its target T4, EGFR (Homo sapiens, UniProt P00533).
T4 construct: Kinases are expressed as either kinase domains or full length constructs; made in house
In words: Kinase inhibition assay (33P transfer), EGFR. The following applies: Table 2, kinase inhibition class; read-out: EGFR-1. The procedure, abridged: as §2

A further experiment addresses T5, Kdr (Homo sapiens, UniProt P35968).
T5 construct: Kinases are expressed as either kinase domains or full length constructs; made in house
In words: Kinase inhibition assay (33P transfer), Kdr. The following applies: read-out: KDR-1. The essentials:
as §1

The target of a further experiment is T6, Tek (Homo sapiens, UniProt Q02763).
T6 construct: Kinases are expressed as either kinase domains or full length constructs; made in house
In words: Kinase inhibition assay (33P transfer), Tek. The following applies: read-out: Tek-1. The procedure, abridged:
as §2

The target of the next experiment is T7, c-Met (Homo sapiens, UniProt P08581).
T7 construct: Kinases are expressed as either kinase domains or full length constructs; made in house
Description: Kinase inhibition assay (33P transfer), c-Met. As to conditions: Table 2, kinase inhibition class; read-out: Met-1. The procedure, abridged: as §2

The target of the next experiment is T8, AKT (Homo sapiens, UniProt Q9Y243).
T8 construct: Kinases are expressed as either kinase domains or full length constructs; made in house
In words: Kinase inhibition assay (33P transfer), AKT. As to conditions: Table 2, kinase inhibition class; read-out: AKT3-1. The procedure, abridged: as §1

T6 sequence (Q02763 23-1124, species assumed): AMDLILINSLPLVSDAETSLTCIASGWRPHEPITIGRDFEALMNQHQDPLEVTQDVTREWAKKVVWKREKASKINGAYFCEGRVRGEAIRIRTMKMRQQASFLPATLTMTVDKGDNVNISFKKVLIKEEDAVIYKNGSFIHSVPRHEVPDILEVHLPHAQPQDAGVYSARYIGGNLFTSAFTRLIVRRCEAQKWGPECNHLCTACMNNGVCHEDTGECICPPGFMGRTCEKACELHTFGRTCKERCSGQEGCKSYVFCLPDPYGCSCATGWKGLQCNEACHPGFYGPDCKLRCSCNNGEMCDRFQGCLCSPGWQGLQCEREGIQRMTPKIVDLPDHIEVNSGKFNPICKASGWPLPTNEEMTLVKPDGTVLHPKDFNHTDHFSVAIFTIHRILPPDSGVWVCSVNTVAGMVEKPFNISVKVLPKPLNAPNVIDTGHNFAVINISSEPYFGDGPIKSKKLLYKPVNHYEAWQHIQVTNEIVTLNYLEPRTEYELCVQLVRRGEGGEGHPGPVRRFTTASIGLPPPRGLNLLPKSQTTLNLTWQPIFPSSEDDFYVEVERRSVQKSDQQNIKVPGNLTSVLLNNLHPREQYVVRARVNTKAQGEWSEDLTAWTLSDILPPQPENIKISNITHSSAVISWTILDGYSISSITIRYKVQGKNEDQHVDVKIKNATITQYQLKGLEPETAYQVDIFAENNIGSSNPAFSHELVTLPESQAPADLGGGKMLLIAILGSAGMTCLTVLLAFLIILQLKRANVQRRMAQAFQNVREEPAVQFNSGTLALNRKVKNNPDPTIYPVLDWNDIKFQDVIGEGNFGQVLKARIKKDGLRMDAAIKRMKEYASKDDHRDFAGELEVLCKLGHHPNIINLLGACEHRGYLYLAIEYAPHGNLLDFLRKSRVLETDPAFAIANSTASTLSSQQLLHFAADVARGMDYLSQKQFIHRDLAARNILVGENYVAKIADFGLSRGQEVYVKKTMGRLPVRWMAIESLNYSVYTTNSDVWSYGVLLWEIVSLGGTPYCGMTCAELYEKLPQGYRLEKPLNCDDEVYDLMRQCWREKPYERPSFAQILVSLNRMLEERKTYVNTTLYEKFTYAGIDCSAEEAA
T7 sequence (P08581 25-1390): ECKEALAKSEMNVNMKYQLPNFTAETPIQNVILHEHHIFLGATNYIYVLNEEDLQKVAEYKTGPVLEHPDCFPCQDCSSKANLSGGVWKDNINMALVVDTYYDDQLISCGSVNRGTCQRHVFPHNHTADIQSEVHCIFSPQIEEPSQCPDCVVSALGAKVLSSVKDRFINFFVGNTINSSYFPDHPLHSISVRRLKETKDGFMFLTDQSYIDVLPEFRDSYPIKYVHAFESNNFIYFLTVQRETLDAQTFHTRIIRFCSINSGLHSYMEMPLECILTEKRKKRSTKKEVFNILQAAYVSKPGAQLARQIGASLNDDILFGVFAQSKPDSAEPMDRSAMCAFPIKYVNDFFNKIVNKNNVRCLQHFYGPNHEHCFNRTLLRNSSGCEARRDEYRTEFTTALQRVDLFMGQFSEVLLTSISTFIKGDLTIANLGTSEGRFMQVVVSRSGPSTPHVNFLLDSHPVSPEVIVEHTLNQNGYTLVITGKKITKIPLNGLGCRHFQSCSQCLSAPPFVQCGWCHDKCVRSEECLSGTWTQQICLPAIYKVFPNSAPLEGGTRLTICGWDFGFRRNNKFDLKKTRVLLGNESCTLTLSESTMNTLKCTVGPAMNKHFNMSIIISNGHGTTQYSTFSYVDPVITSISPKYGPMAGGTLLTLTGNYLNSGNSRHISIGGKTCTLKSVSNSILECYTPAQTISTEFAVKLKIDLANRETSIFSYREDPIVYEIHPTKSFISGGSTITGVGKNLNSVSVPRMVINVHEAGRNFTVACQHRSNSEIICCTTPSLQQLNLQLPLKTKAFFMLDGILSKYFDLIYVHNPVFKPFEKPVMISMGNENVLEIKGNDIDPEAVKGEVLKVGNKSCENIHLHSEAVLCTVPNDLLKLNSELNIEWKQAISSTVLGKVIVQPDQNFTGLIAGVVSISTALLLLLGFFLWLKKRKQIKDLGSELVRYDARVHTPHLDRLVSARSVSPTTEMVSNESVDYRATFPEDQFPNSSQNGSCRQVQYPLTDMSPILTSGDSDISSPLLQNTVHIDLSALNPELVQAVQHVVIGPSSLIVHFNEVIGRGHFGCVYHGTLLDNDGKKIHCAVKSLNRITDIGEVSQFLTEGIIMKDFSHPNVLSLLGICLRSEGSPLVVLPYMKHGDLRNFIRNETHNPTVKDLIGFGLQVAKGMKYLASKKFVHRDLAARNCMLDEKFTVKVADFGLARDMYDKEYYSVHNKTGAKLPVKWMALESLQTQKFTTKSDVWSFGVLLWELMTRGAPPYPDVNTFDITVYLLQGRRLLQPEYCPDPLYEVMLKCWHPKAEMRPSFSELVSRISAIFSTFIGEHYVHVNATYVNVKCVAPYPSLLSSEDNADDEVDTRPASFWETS
T8 sequence (Q9Y243 whole entry, the tested form may be a part): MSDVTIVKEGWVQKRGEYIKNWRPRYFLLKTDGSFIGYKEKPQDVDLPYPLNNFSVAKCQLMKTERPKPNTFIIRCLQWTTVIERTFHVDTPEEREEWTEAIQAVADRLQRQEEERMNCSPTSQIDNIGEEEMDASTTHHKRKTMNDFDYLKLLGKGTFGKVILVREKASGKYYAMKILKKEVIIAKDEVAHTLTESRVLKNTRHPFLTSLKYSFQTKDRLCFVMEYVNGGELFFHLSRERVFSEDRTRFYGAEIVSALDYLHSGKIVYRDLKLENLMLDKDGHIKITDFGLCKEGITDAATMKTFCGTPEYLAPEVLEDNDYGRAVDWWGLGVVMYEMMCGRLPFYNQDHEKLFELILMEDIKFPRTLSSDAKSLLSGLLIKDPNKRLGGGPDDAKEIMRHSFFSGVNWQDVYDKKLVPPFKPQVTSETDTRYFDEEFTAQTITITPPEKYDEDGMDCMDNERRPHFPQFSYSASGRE
T4 sequence (P00533 25-1210, species assumed): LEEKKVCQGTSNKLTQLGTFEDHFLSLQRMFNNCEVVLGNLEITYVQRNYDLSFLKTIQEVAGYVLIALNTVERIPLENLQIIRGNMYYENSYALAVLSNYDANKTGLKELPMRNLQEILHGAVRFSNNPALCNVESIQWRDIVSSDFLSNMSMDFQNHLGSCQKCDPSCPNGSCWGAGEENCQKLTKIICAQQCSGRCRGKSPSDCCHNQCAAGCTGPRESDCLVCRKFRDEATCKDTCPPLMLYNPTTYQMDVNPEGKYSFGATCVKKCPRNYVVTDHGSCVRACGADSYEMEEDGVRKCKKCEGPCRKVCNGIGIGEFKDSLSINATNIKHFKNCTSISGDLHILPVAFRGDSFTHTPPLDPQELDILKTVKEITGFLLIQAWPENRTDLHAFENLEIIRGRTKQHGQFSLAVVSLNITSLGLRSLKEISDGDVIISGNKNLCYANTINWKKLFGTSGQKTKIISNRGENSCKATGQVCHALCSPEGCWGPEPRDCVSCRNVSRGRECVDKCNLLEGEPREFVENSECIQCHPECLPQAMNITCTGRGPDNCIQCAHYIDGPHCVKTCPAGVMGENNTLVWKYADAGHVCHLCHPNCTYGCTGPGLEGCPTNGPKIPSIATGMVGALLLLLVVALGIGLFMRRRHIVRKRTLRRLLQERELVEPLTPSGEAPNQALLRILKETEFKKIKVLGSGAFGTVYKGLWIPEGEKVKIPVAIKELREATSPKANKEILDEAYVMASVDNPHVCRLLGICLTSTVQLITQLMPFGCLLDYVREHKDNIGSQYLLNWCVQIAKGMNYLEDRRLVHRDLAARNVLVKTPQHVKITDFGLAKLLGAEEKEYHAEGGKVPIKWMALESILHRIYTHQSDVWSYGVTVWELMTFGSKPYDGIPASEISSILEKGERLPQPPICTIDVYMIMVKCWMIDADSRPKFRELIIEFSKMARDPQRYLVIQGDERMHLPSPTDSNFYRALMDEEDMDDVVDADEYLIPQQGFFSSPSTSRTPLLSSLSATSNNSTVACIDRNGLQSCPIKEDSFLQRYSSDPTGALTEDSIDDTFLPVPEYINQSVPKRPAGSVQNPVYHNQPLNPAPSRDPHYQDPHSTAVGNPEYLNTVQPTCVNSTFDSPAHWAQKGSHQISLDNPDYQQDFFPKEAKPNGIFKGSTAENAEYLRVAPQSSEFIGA
T1 sequence (P06239 whole entry, species assumed, the tested form may be a part): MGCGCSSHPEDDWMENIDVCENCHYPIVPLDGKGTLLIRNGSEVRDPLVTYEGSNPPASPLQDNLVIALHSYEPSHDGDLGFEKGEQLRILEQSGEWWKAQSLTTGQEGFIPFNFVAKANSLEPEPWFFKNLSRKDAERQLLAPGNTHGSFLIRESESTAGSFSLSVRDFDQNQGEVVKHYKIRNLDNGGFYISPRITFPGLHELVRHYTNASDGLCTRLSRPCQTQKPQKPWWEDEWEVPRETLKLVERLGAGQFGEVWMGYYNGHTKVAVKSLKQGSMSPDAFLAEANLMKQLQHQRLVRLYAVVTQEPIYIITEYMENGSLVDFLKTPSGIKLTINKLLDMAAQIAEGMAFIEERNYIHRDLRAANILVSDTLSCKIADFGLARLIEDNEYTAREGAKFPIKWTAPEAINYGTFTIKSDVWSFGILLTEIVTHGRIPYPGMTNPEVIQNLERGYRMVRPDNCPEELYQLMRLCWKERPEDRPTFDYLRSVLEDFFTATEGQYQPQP

With `CC(C)(C)OC(=O)NCc1ccc(Nc2ncnc(Nc3cc(-c4ccco4)n[nH]3)n2)cc1` [Compound 431], the pIC50 is 5.00 to 5.11 at Lck (Table 3); under 5.00 at Zap-70 (Table 3); 5.11 to 5.27 on Itk (Table 3); 5.27 to 6.05 on EGFR; 5.27 to 6.05 at Kdr (Table 3); 5.11 to 5.27 on Tek. Moreover, the pIC50 on c-Met is under 5.00; on AKT, 5.11 to 5.27.

Turning to `CC(C)(C)OC(=O)NCc1cccc(Nc2ncnc(Nc3cc(-c4ccccc4)n[nH]3)n2)c1` [Compound 986], the pIC50 at Lck was under 5.01; at Zap-70 it was under 5.01; at Itk, 5.12 to 5.28; at EGFR it was 5.12 to 5.28; on Kdr, 5.28 to 6.06; at Tek it was 5.01 to 5.12. In addition, the results for the pIC50 at c-Met and at AKT were 5.28 to 6.06 and under 5.01, respectively.

As for `COc1cc(Nc2ncnc(-c3cccnc3NCCCN)n2)cc(OC)c1OC` [Compound 1078], the pIC50 was under 4.96 at Lck; under 4.96 at Zap-70; under 4.96 at Itk; under 4.96 on EGFR; 5.23 to 6.01 on Kdr; under 4.96 at Tek. Besides, the pIC50 on c-Met and at AKT was under 4.96 in each case.

Turning to `O=c1[nH]c2ccccc2n1-c1ncnc(Nc2cc(C(F)(F)F)cc(C(F)(F)F)c2)n1` [Compound 506], the pIC50 at Lck is 4.99 to 5.10; at Zap-70 it was under 4.99; on Itk, under 4.99; on EGFR it was under 4.99; on Kdr it was under 4.99; on Tek it was 5.10 to 5.26. The pIC50 at c-Met and at AKT was under 4.99 throughout.

For the compound `O=c1[nH]c2ccccc2n1-c1ncnc(Nc2ccncn2)n1` [Compound 492], the pIC50 on Lck was under 4.83; on Zap-70 it was 4.83 to 4.94; at Itk, under 4.83; at EGFR, 4.94 to 5.11; at Kdr it was 4.94 to 5.11; on Tek, 4.94 to 5.11. The pIC50 on c-Met is 4.94 to 5.11; on AKT it was under 4.83.

Take `COc1cc(Nc2ncnc(-n3c(Nc4cc(OC)c(OC)c(OC)c4)nc4ccccc43)n2)cc(OC)c1OC` [Compound 402]: the pIC50 is under 5.09 at Lck (Table 3); under 5.09 at Zap-70 (Table 3); under 5.09 on Itk (Table 3); under 5.09 on EGFR; 5.37 to 6.15 on Kdr (Table 3); under 5.09 on Tek. The pIC50 on c-Met and on AKT was under 5.09 each time.

`O=c1[nH]c2ccccc2n1-c1ncnc(Nc2cnc3ccccc3c2)n1` [Compound 508]: the pIC50 is 5.17 to 5.95 on Lck; under 4.90 on Zap-70; 5.01 to 5.17 on Itk; under 4.90 on EGFR; 5.17 to 5.95 at Kdr; 5.01 to 5.17 at Tek. Also, the pIC50 on c-Met and on AKT was under 4.90 each time.

For the compound `Nc1ncnc(Nc2ccc3c(c2)OCO3)n1` [Compound 1025], the pIC50 on Lck (Table 3) was under 4.71; on Zap-70 (Table 3) it was 4.71 to 4.82; on Itk (Table 3), under 4.71; on EGFR it was 4.71 to 4.82; on Kdr (Table 3), 4.82 to 4.98; at Tek, under 4.71. Moreover, the pIC50 at c-Met and on AKT was under 4.71 each time.

Consider `COc1cc(Nc2ncnc(-c3c(O)n(C)c4ccccc34)n2)cc(OC)c1OC` [Compound 465], for which the pIC50 on Lck (Table 3) was under 4.96; on Zap-70 (Table 3), under 4.96; on Itk (Table 3) it was under 4.96; on EGFR, under 4.96; at Kdr (Table 3) it was 5.23 to 6.01; at Tek it was under 4.96. For the same compound, the pIC50 at c-Met and on AKT was under 4.96 each time.

Turning to `CC(C)(C)c1ccc(Nc2ncnc(-n3c(N)nc4ccccc43)n2)cc1` [Compound 525], the pIC50 on Lck is 5.01 to 5.18; at Zap-70, under 4.90; at Itk it was 5.01 to 5.18; on EGFR, under 4.90; at Kdr, 5.01 to 5.18; on Tek it was 5.01 to 5.18. The pIC50 at c-Met is 4.90 to 5.01; at AKT it was under 4.90.

On to `Nc1nc2ccccc2n1-c1ncnc(Nc2ccc(OC(F)(F)F)cc2)n1` [Compound 647], for which the pIC50 at Lck was under 4.93; on Zap-70, under 4.93; on Itk, under 4.93; at EGFR it was 5.21 to 5.99; on Kdr, 5.21 to 5.99; at Tek it was under 4.93. The pIC50 at c-Met and at AKT was under 4.93 each time.

For the compound `Nc1ncnc(-n2c(N)nc3ccccc32)n1` [Compound 646], the pIC50 was under 4.70 on Lck; under 4.70 on Zap-70; 4.81 to 4.98 at Itk; under 4.70 on EGFR; 4.98 to 5.75 at Kdr; under 4.70 on Tek. The pIC50 at c-Met is under 4.70; at AKT, 4.98 to 5.75.

As to `COc1cc(Nc2ncnc(Nc3cccc4ncccc34)n2)cc(OC)c1OC` [Compound 695], the pIC50 on Lck is over 6.00; on Zap-70 it was under 4.95; on Itk, 5.23 to 6.00; on EGFR, 5.06 to 5.23; at Kdr, over 6.00; on Tek, 5.06 to 5.23. Further, the pIC50 at c-Met and on AKT was under 4.95 in each case.

For the compound `COc1cc(Nc2ncnc(-n3c(NCCc4ccncc4)nc4ccccc43)n2)cc(OC)c1OC` [Compound 948], the pIC50 on Lck is 5.15 to 5.32; at Zap-70 it was under 5.04; on Itk it was 5.15 to 5.32; at EGFR it was under 5.04; at Kdr it was 5.32 to 6.10; on Tek, under 5.04. Further, the pIC50 at c-Met and on AKT was under 5.04 in each case.

For the compound `Nc1nc2ccccc2n1-c1ncnc(Nc2ccc(-c3ccccc3)cc2)n1` [Compound 480], the pIC50 is 5.20 to 5.98 on Lck; 5.20 to 5.98 at Zap-70; 4.93 to 5.04 at Itk; 5.20 to 5.98 on EGFR; 5.20 to 5.98 on Kdr; 5.20 to 5.98 on Tek. Also, the pIC50 at c-Met and on AKT was 5.20 to 5.98 each time.

On to `O=c1[nH]c2ccccc2n1-c1ncnc(Nc2ccccc2[N+](=O)[O-])n1` [Compound 493], for which the pIC50 on Lck was under 4.89; at Zap-70, under 4.89; at Itk, under 4.89; on EGFR, under 4.89; on Kdr it was under 4.89; on Tek, 5.00 to 5.16. The pIC50 at c-Met is 4.89 to 5.00; at AKT, under 4.89.

Regarding `COc1ccccc1Nc1nc2ccccc2n1-c1ncnc(Nc2cc(OC)c(OC)c(OC)c2)n1` [Compound 398], the pIC50 on Lck (Table 3) is under 5.05; on Zap-70 (Table 3) it was under 5.05; on Itk (Table 3) it was under 5.05; on EGFR, under 5.05; on Kdr (Table 3) it was 5.15 to 5.32; at Tek, 5.05 to 5.15. In addition, the pIC50 at c-Met and at AKT was under 5.05 in each case.
